{
  "source": "patent US20070292351A1",
  "about": "“Assay for efficacy of histone deacetylase inhibitors” (Methylgene, Inc., priority 2006, published 2007)",
  "key": {"[1]": {"tested_on": "peripheral blast cells from AML patients", "assay": "Microarray gene expression analysis, AML patients treated with MGCD0103 in vivo", "parameters": "species or system human", "conditions": "for Fold of Induction of CCL4 transcription / Fold of Induction of CCL7 transcription / Fold of Induction of IFNG transcription / Fold of Induction of THBS1 transcription: AML Patient A (clinical response)", "method": "Whole blood from either consenting healthy volunteers or consenting patients was centrifuged at 2500 rpm for 10 minutes at ambient temperature in a Sorvall RT-7 centrifuge (Mandel Scientific Co., Guelph, Ontario). Plasma was removed and buffy coat was collected. Five volumes of Erythrocyte Lysis Buffer (EL) (Qiagen Canada Inc., Mississauga, Ontario) were added into buffy coat. Buffy coat was incubated on ice for 20 minutes before it was centrifuged at 400 g for 10 minutes at 4° C. Supernatant was removed and buffy coat was washed twice with EL buffer and re-centrifuged. Buffy coat was resuspended in RPMI media and cells were counted with trypan blue exclusion. To isolate PBMCs, buffy coat cells were centrifuged over Lymphoprep (Axis-Shield, 1114544), and any remaining erythrocytes in the sample were lysed by treatment with EL lysis buffer (Qiagen, 79217). The cell pellets are washed and then re-suspended in RPMI containing 10% FBS.\nBiological analysis was performed using Biointerpreter software.\n(§1) Human patients with either solid tumors or leukemia/MDS diseases were enrolled in phase I studies with consensus forms. MGCD0103 were dosed into patients orally every other day (day 1, day 3, day 5 […]). Blood samples were withdrawled by using the Vacutainer sodium-heparin blood collection tubes (Becton Dickinson Laboratories, Franklin Lakes, N.J.) and shipped to the test site within 24 hours on ice-pack. Baseline samples were drawn immediately prior to the first drug dose, while the 24 hour samples were drawn at 24 hours post the first drug dose. The 48 hours samples were drawn at 48 hours post the first dose. For the 1 week samples, blood was drawn 72 hours after day 5 dose (3 accumulated doses during week 1)."}, "Jurkat-T leukemic cells": {"tested_on": "Jurkat-T leukemic cells", "assay": "RT-PCR of MT3 transcription in Jurkat-T cells", "assay_type": "cell-based, human", "conditions": "16 h, semi-quantitative RT-PCR (FIG. 2)", "method": "RNA was extracted from 8×10^6 cells using the Qiagen RNeasy Mini kit (cat#74106, Qiagen, Missisauga Ont.) following the manufacturer's instructions. RT reaction was performed using the Expand Reverse Transcriptase kit from Roche (Cat#1 785 834 Roche Applied Biosciences, Laval, Que) with 1 μg total RNA together with 1 μl oligo(dT) primer (cat#y01212, Invitrogen-Canada, Burlington, Ont). cDNA was synthesized using an Eppendorf Mastercycler gradient PCR apparatus (Brinkmann Instruments Canada LTD., Mississauga, Ontario), using a two cycle protocol. For the 1st cycle reaction mixture (0.5 μl H2O, 4 μl of 5× Buffer, 2 μl DTT, 2 ul of 10 mM dNTPs, 0.5 μl RNAsin (cat#N211B, Promega, Fisher Scientific, Whitby, Ont.) and […] of the Expand Reverse Transcriptase (Cat#1785834, Roche, Laval, Quebec)) was incubated at 65° C. for 10 minutes and then set on ice. A second cycle was performed at 42° C. for 1 hour. The resulting cDNA products were kept at 4° C. until used.\nOne ul of the resulting cDNA was used for every amplification reaction with 18.9 ul H2O, 1.25 ul of 10 mM dNTPs, 0.5 ul of each primer pair, 2.5 ul of 10× Buffer. The PCR reaction was carried out in an Eppendorf Mastercycler gradient. The sequences of the primers used for the amplification of selected biomarkers, as well as the details of the PCR reaction cycles are featured below. […]"}, "bone marrow blast count": {"tested_on": "bone marrow blast count", "assay": "Bone marrow blast count in AML patient", "assay_type": "in vivo, human", "conditions": "AML Patient A, 2 cycles of treatment (FIG. 10)", "method": "FIG. 10. Reduction of bone marrow blast count in Patient A after 2 cycles of MGCD0103 treatment in vivo.\nas §1"}, "IL-6 and IL-8": {"tested_on": "IL-6 and IL-8", "assay": "Cytokine antibody array of patient plasma", "assay_type": "in vivo, human", "conditions": "two leukemia patients treated orally; cytokine antibody array (FIG. 16)", "method": "FIG. 16 Induction of IL-6 and IL-8 expression in plasma from two leukemia patients treated with MGCD0103 orally in vivo, as determined by cytokine antibody array.\nas §1\n10 ml blood from patients were centrifuged at 2500 RPM for 10 min at 10° C. […] The levels of cytokines in the plasma were determined using the TranSignal Human Cytokine Antibody Array 1.0 (Cat#MA6120, Panomics Inc. Redwood City, Calif.) following the manufacturer's instructions. […] Blots were developed by autoradiography, scanned and quantitated using the Cyclone Software. Data was calculated, plotted using Excel and expressed as fold induction from Day 8 following treatment over baseline Day 0 samples."}},
  "data": [
    {"smiles": "Nc1ccccc1NC(=O)c1ccc(CNc2nccc(-c3cccnc3)n2)cc1", "note": "[MGCD0103]", "values": [
      {"measurement": "Fold of Induction of CCL4 transcription", "setting": "[1]; 24 hr", "result": 1.4, "unit": "fold"},
      {"measurement": "Fold of Induction of CCL7 transcription", "setting": "[1]; 24 hr", "result": 2.3, "unit": "fold"},
      {"measurement": "Fold of Induction of IFNG transcription", "setting": "[1]; 24 hr", "result": 1.4, "unit": "fold"},
      {"measurement": "Fold of Induction of THBS1 transcription", "setting": "[1]; 24 hr", "result": 1.4, "unit": "fold"},
      {"measurement": "Fold of Induction of CCL4 transcription", "setting": "[1]; day 8", "result": 12.2, "unit": "fold"},
      {"measurement": "Fold of Induction of CCL7 transcription", "setting": "[1]; day 8", "result": 7.3, "unit": "fold"},
      {"measurement": "Fold of Induction of IFNG transcription", "setting": "[1]; day 8", "result": 2.5, "unit": "fold"},
      {"measurement": "Fold of Induction of THBS1 transcription", "setting": "[1]; day 8", "result": 2.8, "unit": "fold"},
      {"measurement": "Induction of transcription of a subset of proapoptotic proteins", "setting": "[1]; peripheral blast cells, D8 vs 0 h, AML Patient A (response), in contrast to Patients B, C, D (FIG. 11)", "result": "Induction"},
      {"measurement": "induction of transcription of the Table 5 genes (CCL7, CCL4, IFNG, THBS1)", "setting": "[1]; three other AML patients without response", "result": "<= 1 fold"},
      {"measurement": "Dose-dependent induction of MT3 transcription", "setting": "Jurkat-T leukemic cells", "result": "Dose-dependent induction"},
      {"measurement": "bone marrow blast count", "setting": "bone marrow blast count", "result": "reduction"},
      {"measurement": "induction of IL-6 and IL-8 expression in plasma", "setting": "IL-6 and IL-8", "result": "induction"}
    ]}
  ]
}
